This passage reports TGI and GI50 results from PubChem BioAssay (NCI).

Among the test systems are HOP-92 NSCLC; RXF 393 renal; HL-60(TB) leukemia; OVCAR-4 ovarian; SK-OV-3 ovarian; SF-268 CNS; NCI-H226 lung; SK-MEL-5 melanoma; MDA-MB-231 breast; PC-3 prostate.
Holding throughout (assay): NCI tumour cell line growth inhibition, 48 h

The structures appear in SMILES notation.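 These data come from cells grown in 96-well plates and exposed to compound for 48 hours at five concentrations. GI50: concentration for 50% inhibition of growth. TGI is the concentration that stops growth completely.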

Consider `CC1CCC2(C)C(CC=C(C=O)C2(O)C=O)C12CO2` (centres undefined), for which the TGI in the assay on HOP-92 NSCLC is 5.29 µM; with RXF 393 renal it was 2.85 µM; in the assay on HL-60(TB) leukemia it was 2.92 µM; in the assay with OVCAR-4 ovarian, 5.2 µM; in the assay on SK-OV-3 ovarian, 10.2 µM; in the assay on SF-268 CNS, 18 µM. The same compound gave a TGI in the assay with NCI-H226 lung of 4.99 µM.

On to `O=C(Cc1ccccc1)C(c1ccccc1)S(=O)(=O)c1ccccc1` (centres undefined), for which the TGI in the assay with HOP-92 NSCLC, in the assay with RXF 393 renal, in the assay on HL-60(TB) leukemia, in the assay on OVCAR-4 ovarian, in the assay with SK-OV-3 ovarian and with SK-MEL-5 melanoma was above 100 µM throughout. For the same compound, the TGI in the assay with SF-268 CNS and in the assay with NCI-H226 lung was above 100 µM throughout.

Take `CC(N)CC(=O)O` (centres undefined): the TGI in the assay with HOP-92 NSCLC, in the assay with RXF 393 renal, in the assay on HL-60(TB) leukemia, in the assay with OVCAR-4 ovarian, with SK-OV-3 ovarian and with SK-MEL-5 melanoma was above 5000 µM throughout. In addition, the TGI in the assay on SF-268 CNS and with NCI-H226 lung was above 5000 µM throughout.

In the case of `C=CC(=O)N[C@@H](/C=C/C(=O)OCC)Cc1ccc(-c2cc(Cl)cc(Cl)c2)cc1`, the GI50 with RXF 393 renal was 7.96 µM; in the assay on MDA-MB-231 breast, 12.8 µM; with HL-60(TB) leukemia, 8.22 µM; in the assay on OVCAR-4 ovarian, 5.23 µM; in the assay on SK-OV-3 ovarian, 19.4 µM; with SK-MEL-5 melanoma, 4.46 µM. The GI50 was 16 µM in the assay on SF-268 CNS and 16.7 µM with NCI-H226 lung. Moreover, the TGI in the assay with RXF 393 renal came out at 35.3 µM; in the assay on MDA-MB-231 breast, 48.8 µM; with HL-60(TB) leukemia it was 60 µM; in the assay on OVCAR-4 ovarian it was 74.4 µM; in the assay on SK-OV-3 ovarian, 63.1 µM; in the assay on SK-MEL-5 melanoma, 17.5 µM. Besides, the figures for the TGI with SF-268 CNS and with NCI-H226 lung were above 100 µM and 71.7 µM, respectively.

With `c1ccc(-c2csc3ncn4cnnc4c23)cc1`, the TGI is 84.7 µM in the assay with HOP-92 NSCLC; above 100 µM in the assay on HL-60(TB) leukemia; above 100 µM in the assay with OVCAR-4 ovarian; above 100 µM with SK-OV-3 ovarian; above 100 µM in the assay on SK-MEL-5 melanoma; above 100 µM with NCI-H226 lung.

Turning to `Clc1ccc([I+]c2ccc(Cl)cc2Cl)c(Cl)c1`, the GI50 with PC-3 prostate is 1.94 µM; in the assay on MDA-MB-231 breast, 2.04 µM; in the assay with HL-60(TB) leukemia, 2.09 µM; with OVCAR-4 ovarian, 1.95 µM; in the assay on SK-OV-3 ovarian, 4.17 µM; in the assay on SK-MEL-5 melanoma it was 6.04 µM. For the same compound, the GI50 in the assay on SF-268 CNS is 2.14 µM. Moreover, the TGI worked out at 4.72 µM in the assay with PC-3 prostate; 4.42 µM in the assay with MDA-MB-231 breast; 4.58 µM with HL-60(TB) leukemia; 4.52 µM in the assay on OVCAR-4 ovarian; 12 µM in the assay with SK-OV-3 ovarian; 20.3 µM with SK-MEL-5 melanoma. Further, the TGI with SF-268 CNS came to 4.99 µM.

For `CCOC(=O)C(CCCNC(=O)OC(C)(C)C)N(Cc1ccc(OC)cc1OC)C(=O)CC(=O)CP(=O)(OCC)OCC` (centres undefined), the TGI with HOP-92 NSCLC, with RXF 393 renal, in the assay with HL-60(TB) leukemia, in the assay with OVCAR-4 ovarian, in the assay on SK-OV-3 ovarian and in the assay with SK-MEL-5 melanoma was above 100 µM each time. In addition, the TGI in the assay with SF-268 CNS and in the assay on NCI-H226 lung was above 100 µM in each case.

Regarding `O=C1C(Nc2cccc(O)c2)=C(Sc2ccccc2)C(=O)N1Cc1ccccc1`, the GI50 in the assay with PC-3 prostate is 2.15 µM; in the assay with RXF 393 renal, 5.07 µM; in the assay with OVCAR-4 ovarian, 5.33 µM; with SK-OV-3 ovarian, 16.4 µM; in the assay with SK-MEL-5 melanoma, 2.37 µM; in the assay with SF-268 CNS, 10.5 µM. For the same compound, the GI50 in the assay on NCI-H226 lung is 2.55 µM. The TGI was 14.3 µM in the assay on PC-3 prostate; 25.6 µM in the assay on RXF 393 renal; 49.6 µM in the assay with OVCAR-4 ovarian; 35.3 µM in the assay on SK-OV-3 ovarian; 17 µM in the assay with SK-MEL-5 melanoma; 26.8 µM in the assay on SF-268 CNS. Moreover, the TGI in the assay with NCI-H226 lung is 22 µM.

As for `c1ccc2c(CNCCN3CCNCC3)c3ccccc3c(CNCCN3CCNCC3)c2c1`, the GI50 in the assay on PC-3 prostate is 5.86 µM; in the assay on RXF 393 renal, 25.3 µM; in the assay with MDA-MB-231 breast it was 16 µM; in the assay on OVCAR-4 ovarian, 43.8 µM; in the assay on SK-OV-3 ovarian, 24.5 µM; in the assay on SK-MEL-5 melanoma, 15.6 µM. Also, the values for the GI50 in the assay with SF-268 CNS and in the assay with NCI-H226 lung were 12.4 µM and 10.3 µM, respectively. Further, the TGI in the assay on PC-3 prostate is 20.3 µM; with RXF 393 renal it was 81.9 µM; in the assay on MDA-MB-231 breast, 38.6 µM; in the assay on OVCAR-4 ovarian it was above 100 µM; with SK-OV-3 ovarian, 79.8 µM; with SK-MEL-5 melanoma, 35.2 µM. Besides, the TGI in the assay with SF-268 CNS turned out to be 33.3 µM; in the assay on NCI-H226 lung, 37.6 µM.

Regarding `C/C(=N\NC(=O)C(N)=O)c1c(O)cc(C)oc1=O`, the TGI with HOP-92 NSCLC, in the assay with HL-60(TB) leukemia, in the assay with OVCAR-4 ovarian, with SK-OV-3 ovarian, in the assay with SK-MEL-5 melanoma and in the assay with SF-268 CNS was above 100 µM each time. The compound also returned a TGI in the assay with NCI-H226 lung above 100 µM.

`C=C1C=CC2(Br)OC3CC(C)(Cl)C(Br)CC13C2(C)C` (centres undefined): the TGI in the assay with HOP-92 NSCLC is 50.8 µM; in the assay with HL-60(TB) leukemia, 33.9 µM; with OVCAR-4 ovarian, above 100 µM; in the assay on SK-OV-3 ovarian, above 100 µM; in the assay on SK-MEL-5 melanoma, 31 µM; in the assay on SF-268 CNS, above 100 µM. This compound displayed a TGI in the assay with NCI-H226 lung of 34.1 µM.

For the compound `COc1ccc(/C=N\Nc2nc(SCC(C)C)nc(-c3ccc(OC)cc3)c2C#N)cc1`, the GI50 in the assay with HOP-92 NSCLC is 2.39 µM; in the assay with RXF 393 renal, 2.81 µM; in the assay on MDA-MB-231 breast, 6.66 µM; in the assay on HL-60(TB) leukemia it was above 100 µM; in the assay on OVCAR-4 ovarian, 0.417 µM; with SK-OV-3 ovarian, 1.46 µM. For the same compound, the GI50 in the assay on SK-MEL-5 melanoma was 13.6 µM; in the assay with SF-268 CNS it was 11.7 µM; with NCI-H226 lung, 10.5 µM. The TGI with HOP-92 NSCLC is 14.1 µM; in the assay with RXF 393 renal, 15.8 µM; in the assay with MDA-MB-231 breast it was 25 µM; in the assay with HL-60(TB) leukemia, above 100 µM; with OVCAR-4 ovarian, 1.83 µM; with SK-OV-3 ovarian, 14.6 µM. Moreover, the results for the TGI in the assay with SK-MEL-5 melanoma, with SF-268 CNS and in the assay on NCI-H226 lung were 51.2 µM, 67.7 µM and 49.7 µM, respectively.
